Our source for the IC50 values is US8217065B2, “Organic compounds” (Novartis AG, priority 2007, dated 2012).

The target in this assay is T1, human DGAT1 (Homo sapiens, UniProt O75907).
T1 construct: (His)6; made in house; host or cells: Sf9 insect cells (membrane preparation)
T1 sequence (O75907 1-488): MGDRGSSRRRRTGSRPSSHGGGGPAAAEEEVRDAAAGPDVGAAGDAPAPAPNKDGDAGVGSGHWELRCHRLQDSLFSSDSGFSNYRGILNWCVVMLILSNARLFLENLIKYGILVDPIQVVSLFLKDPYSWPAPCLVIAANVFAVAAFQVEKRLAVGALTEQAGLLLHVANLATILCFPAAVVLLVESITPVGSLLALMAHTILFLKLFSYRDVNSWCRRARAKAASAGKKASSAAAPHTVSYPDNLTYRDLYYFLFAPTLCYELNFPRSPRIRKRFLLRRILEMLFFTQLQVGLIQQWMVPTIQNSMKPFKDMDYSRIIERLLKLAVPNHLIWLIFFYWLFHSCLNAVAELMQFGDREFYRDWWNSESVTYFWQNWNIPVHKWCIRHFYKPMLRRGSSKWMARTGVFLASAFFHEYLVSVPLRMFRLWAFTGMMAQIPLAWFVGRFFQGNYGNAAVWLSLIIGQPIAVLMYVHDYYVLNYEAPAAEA
The assay can be described thus: DGAT1 enzyme inhibition assay (Sf9 membrane preparation, LC/MS/MS readout). The conditions noted are these: membrane preparation from Sf9 cells overexpressing human (His)6DGAT1; 10-point, 3-fold dose response; read-out: IC50 (inhibitory activity to human DGAT1). Type of assay: biochemical. As for the experimental part:
The enzyme preparation used in this assay is a membrane preparation from Sf9 cells overexpressing human (His)6DGAT1. During all steps samples were chilled to 4° C. Sf9 cells expressing human (His)6DGAT1 were thawed at RT and re-suspended at a 10:1 ratio (mL buffer/g of cells) in 50 mM HEPES, 1× Complete Protease Inhibitor, pH 7.5. The re-suspended pellet was homogenized for 1 min using a Brinkman PT 10/35 homogenizer with a 20 mm generator. Cells were lysed using Avestin Emulsiflex (chilled to 4° C.) at 10000-15000 psi. Lysate was centrifuged at 100,000×g for 1 h at 4° C. Supernatant was removed and pellets were re-suspended in 50 mM HEPES, 1× Complete Protease Inhibitor, pH 7.5 at ⅙ the volume of supernatant. Re-suspended pellets were pooled and homogenized with 10 strokes of a Glas-Col motor driven teflon pestle on setting 70. The protein concentration of the membrane preparation was quantified using BCA protein assay with 1% SDS. The membrane preparation was aliquoted, frozen on dry ice, and stored at −80° C.
For 50 mL, 25 mL of 0.2 M HEPES stock buffer, 0.5 mL of 1 M MgCl2 (5 mM final concentration), and 24.5 mL of milli-Q H20 are added to the 55 mL Wheaton Potter-Elvehjem homogenizer. Enzyme preparation (0.1 mL) is added to buffer and the mixture is homogenized with 5 strokes on ice using the Glas-Col variable speed homogenizer system on setting 70.
For 50 mL, 0.5 mL 10 mM diolein is added to 9.5 mL of EtOH in a 50 mL Falcon screw cap conical centrifuge tube. Five mL of 10 mM sodium acetate pH 4.5 is added followed by 0.5 mL of 10 mM oleoyl-CoA. Finally, the remaining 4.5 mL of 10 mM sodium acetate pH 4.5 is added followed by 30 mL of milli-Q H2O. The solution should be gently agitated by hand to induce mixing. The final concentrations of EtOH and sodium acetate are 20% and 2 mM, respectively.
Dry compounds are dissolved in the appropriate volume of DMSO to a final concentration of 10 mM. A 10-point, 3-fold dose response is used to evaluate compound potency. All dilutions are performed in DMSO in a Greiner 384-well microplate. • 1. 2 μL of compound in DMSO is added to the appropriate wells. 2 μL of DMSO is added to 100% activity and 100% inhibition controls. • 2. 25 μL of enzyme mix is added to all wells and plate(s) are incubated for 10 min at RT. • 3. 10 μL of 20% acetic acid quench is added to 100% inhibition control wells. Plate(s) are vortexed using Troemner multi-tube vortexer (setting 7 for 10 sec). • 4. 25 μL of substrate mix is added to all wells. Plate(s) are vortexed using Troemner multi-tube vortexer (setting 7 for 10 sec). Plate(s) are incubated for 30 min at RT. • 5. 10 μL of 20% acetic acid quench is added to all wells. Plate(s) are vortexed using Troemner multi-tube vortexer (setting 7 for 10 sec). • 6. 50 μL of 1-butanol w/ glyceryl tripalmitoleate internal standard is added to all wells. • 7. Plate(s) are sealed with super pierce strong plate sealer using the thermo-sealer.
8. Plate(s) are vortexed using Troemner multi-tube vortexer (setting 10 for 5 min). • 9. Plate(s) are centrifuged at 162×g (1000 rpm for GH-3.8 rotor) for 5 min using Beckman GS-6R tabletop centrifuge.
Samples were analyzed by LC/MS/MS using a Waters 1525μ LC and Quattro Micro API MS. Where indicated, tripalmitolein was used as an internal standard to control for instrument variation.
Data is converted to % inhibition prior to curve fitting using the following equation: […]
Consider `Clc1cc(Nc2nnc(-c3ccc4nc(-c5c(Cl)cccc5Cl)[nH]c4c3)o2)ccn1` [Example 1-43, (2-Chloro-pyridin-4-yl)-{5-[2-(2,6-dichloro-phenyl)-3H-benzoimidazol-5-yl]-[1,3,4]oxadiazol-2-yl}-amine], for which the IC50 was found to be 0.08 µM.

`COc1ccc(-c2nnc(-c3ccc4nc(-c5c(C)cc(CC(C)(C)C(=O)O)cc5C)[nH]c4c3)o2)cc1` [Example 1-62, 3-(4-{5-[5-(4-Methoxy-phenyl)-[1,3,4]oxadiazol-2-yl]-1H-benzoimidazol-2-yl}-3,5-dimethyl-phenyl)-2,2-dimethyl-propionic acid]: the IC50 worked out at 0.015 µM.

For `Cc1cncc(-c2nnc(-c3ccc4nc(-c5c(Cl)cccc5Cl)[nH]c4c3)o2)c1` [Example 1-15, 2-(2,6-Dichloro-phenyl)-6-[5-(5-methyl-pyridin-3-yl)-[1,3,4]oxadiazol-2-yl]-1H-benzoimidazole], the IC50 stood at 2.3 µM.

On to `Cc1nc(-c2ccc3nc(-c4c(Cl)cccc4Cl)[nH]c3c2)oc1-c1ccc(Cl)cc1` [Example 1-25, 6-[5-(4-Chlorophenyl)-4-methyl-oxazol-2-yl]-2-(2,6-dichlorophenyl)-1H-benzoimidazole], for which the IC50 turned out to be 4.7 µM.

On to `Clc1cccc(Cl)c1-c1nc2ccc(-c3nnc(N4CCCC4)o3)cc2[nH]1` [Example 1-34, 2-(2,6-Dichloro-phenyl)-6-(5-pyrrolidin-1-yl-[1,3,4]oxadiazol-2-yl)-1H-benzoimidazole], for which the IC50 is greater than 10 µM.

With `N#Cc1cccc(Nc2nnc(-c3ccc4nc(-c5c(Cl)cccc5Cl)[nH]c4c3)o2)c1` [Example 1-51, 3-{5-[2-(2,6-Dichloro-phenyl)-3H-benzoimidazol-5-yl]-[1,3,4]oxadiazol-2-ylamino}-benzonitrile], the IC50 is 0.31 µM.

Regarding `Clc1cccc(Cl)c1-c1nc2ccc(-c3nnc(Nc4cccnc4)o3)cc2[nH]1` [Example 1-29, {5-[2-(2,6-Dichloro-phenyl)-3H-benzoimidazol-5-yl]-[1,3,4]oxadiazol-2-yl}-pyridin-3-yl-amine], the IC50 is 0.4 µM.

With `Cc1ccc(Nc2nnc(-c3ccc4nc(-c5c(Cl)cccc5Cl)[nH]c4c3)o2)cn1` [Example 1-38, {5-[2-(2,6-Dichloro-phenyl)-3H-benzoimidazol-5-yl]-[1,3,4]oxadiazol-2-yl}-(6-methyl-pyridin-3-yl)-amine], the IC50 came out at 0.054 µM.

For the compound `Clc1cccc(Cl)c1-c1nc2ccc(-c3nc(-c4ccccc4)c(-c4ccccc4)o3)cc2[nH]1` [Example 1-24, 2-(2,6-Dichloro-phenyl)-6-(4,5-diphenyl-oxazol-2-yl)-1H -benzoimidazole], the IC50 is greater than 10 µM.

On to `Cc1cc(CCC(=O)O)cc(C)c1-c1nc2ccc(-c3nnc(Nc4cccc(Cl)c4)o3)cc2[nH]1` [Example 1-59, 3-(4-{6-[5-(3-Chlorophenylamino)-[1,3,4]oxadiazol-2-yl]-1H-benzoimidazol-2-yl}-3,5-dimethylphenyl)-propionic acid], for which the IC50 is 0.009 µM.
